# From ChEMBL document CHEMBL3046240, “A useful new insecticide bioassay using first-instar larvae of a net-spinning caddisfly, Cheumatopsyche brevilineata (Trichoptera: Hydropsychidae)” (J Pestic Sci, 2009)
# How the values were obtained:
# Cheumatopsyche = experiment: Insecticidal activity against first-instar larvae of Cheumatopsyche brevilineata after 48 hr; format: functional, organism-based
# Daphnia magna = experiment: Insecticidal activity against Daphnia magna after 48 hr; format: functional, organism-based
# [1] = Octanol-water partition coefficient, log KOW of the compound
# Daphnia pulex = experiment: Insecticidal activity against Daphnia pulex after 48 hr; format: functional, organism-based
Compound,EC50 (Cheumatopsyche) [ng/mL],EC50 (Daphnia magna) [ng/mL],logP [1],"LC50 (Daphnia magna; Daphnia magna, 48 h) [ng/mL]",log KOW [1],EC50 (Daphnia pulex) [ng/mL]
N#Cc1nn(-c2c(Cl)cc(C(F)(F)F)cc2Cl)c(N)c1[S+]([O-])C(F)(F)F (stereo unspecified) [FIPRONIL],0.153,190,–,–,–,–
CCOC(=O)CCN(SN(C)C(=O)Oc1cccc2c1OC(C)(C)C2)C(C)C [BENFURACARB],6.66,9.9,4.22,–,–,–
CN/C(=N\[N+](=O)[O-])NCc1cnc(Cl)s1 [CLOTHIANIDINE],4.44,> 119000,–,–,–,–
CN(C)C(CSS(=O)(=O)c1ccccc1)CSS(=O)(=O)c1ccccc1 [BENSULTAP],148,–,2.28,200,–,–
CC1(C)C(C=C(Cl)Cl)C1C(=O)OCc1cccc(Oc2ccccc2)c1 (stereo unspecified) [PERMETHRIN],0.205,0.6,–,–,6.1,–
CC(C)N1C(=O)N(c2ccccc2)CS/C1=N\C(C)(C)C [BUPROFEZIN],181,> 420,4.3,–,–,–
CN/C(=N/CC1CCOC1)N[N+](=O)[O-] (stereo unspecified) [DINOTEFURAN],10.4,> 968300,–,–,-0.644,–
CCOP(=S)(OCC)Oc1cc(C)nc(C(C)C)n1 [DIMPYLATE],1.77,0.87,–,–,–,–
CNC(=O)ON=C(C)SC [METHOMYL],68.1,8.8,0.093,–,–,–
CCC(C)c1ccccc1OC(=O)NC (stereo unspecified) [FENOBUCARB],9.48,–,2.79,–,–,10.3
COP(=O)(OC)C(O)C(Cl)(Cl)Cl (stereo unspecified) [TRICHLORFON],2.02,0.36,–,–,–,–
CNC(=O)Oc1cccc2ccccc12 [CARBARIL],21.4,5.6,1.85,–,–,–
CCOc1ccc([Si](C)(C)CCCc2ccc(F)c(Oc3ccccc3)c2)cc1 [SILAFLUOFEN],0.6,1.2,–,–,–,–
CCOc1ccc(C(C)(C)COCc2cccc(Oc3ccccc3)c2)cc1 [ETOFENPROX],0.116,0.57,–,–,–,–
CCc1ccc(C(=O)NN(C(=O)c2cc(C)cc(C)c2)C(C)(C)C)cc1 [TEBUFENOZIDE],> 830,3800,–,–,–,–
CN(C)C(CSC(N)=O)CSC(N)=O.Cl [CARTAP HYDROCHLORIDE],3.7,65,–,–,–,–
O=[N+]([O-])/N=C1\NCCN1Cc1ccc(Cl)nc1 [IMIDACLOPRID],4.22,85200,–,–,–,–
CC1=NNC(=O)N(/N=C/c2cccnc2)C1 [PYMETROZINE],112000,87000,–,–,–,–
C/C(=N\C#N)N(C)Cc1ccc(Cl)nc1,3.35,50000,0.8,–,–,–
CNC(=O)Oc1cc(C)cc(C)c1,58.9,30,2.3,–,–,–
CCOC(=O)CC(SP(=S)(OC)OC)C(=O)OCC (stereo unspecified) [MALATHION],1.81,1,2.75,–,–,–
COP(=S)(OC)Oc1ccc(SC)c(C)c1 [FENTHION],2.14,5.2,–,–,–,–
N#C/N=C1\SCCN1Cc1ccc(Cl)nc1 [THIACLOPRID],5.27,22520,–,–,–,–
CCCCN(CCCC)SN(C)C(=O)Oc1cccc2c1OC(C)(C)C2 [CARBOSULFAN],1.49,–,5.4,–,–,1.03
CS/C(C)=N\OC(=O)N(C)SN(C)C(=O)O/N=C(\C)SC [THIODICARB],145,27,1.62,–,–,–
COP(=S)(OC)Oc1ccc([N+](=O)[O-])c(C)c1 [FENITROTHION],7.78,11,3.43,–,–,–
COP(=O)(OC)OC=C(Cl)Cl [DICHLORVOS],1.17,0.2,1.9,–,–,–
CCN(Cc1ccc(Cl)nc1)/C(=C/[N+](=O)[O-])NC,45,> 100000,–,–,–,–
CN(C)C1CSSSC1.O=C(O)C(=O)O [THIOCYCLAM HYDROGEN OXALATE],5.76,–,-0.07,–,–,2010
CCOC(=O)C(SP(=S)(OC)OC)c1ccccc1 (stereo unspecified) [PHENTHOATE],0.88,0.34,–,–,–,–
